Experimental data: patent US11654195B2, “Eco-friendly smart photosensitizer and photo-stem cell therapy product comprising same” (priority 2019, dated 2023)

Tested on: HeLa cells
Assay: Confirmation of location of nanosphere in cells (confocal microscope)
Assay type: cell-based
Details: HeLa cells 1×10^5, 1.25 μg/ml
Description: In order to observe cancer cell targeting of nanospheres of the biocompatible material sample in which the hydroxypropyl methylcellulose of Example 1 was bonded to porfimer sodium by an ester bond, that is, the accumulation location and accumulation rate in cancer cells, HeLa cells (1×10^5 cells) were treated with each of 1.25 μg/ml of the nanospheres of the biocompatible material sample in which the hydroxypropyl methylcellulose prepared in Example 1 was bonded to porfimer sodium by an ester bond and 1.25 μg/ml of unmodified porfimer sodium as a control and then the location in cells over time was observed using a confocal microscope.

porfimer sodium [unmodified porfimer sodium]
location in cells over time: located at different sites in cells
